Measurements reported in patent US20060100264A1, “3,3'-Diindolylmethane immune activating compositions” (priority 2004, published 2006).

Experiments:
IFNγ = IFNγ mRNA expression in DIM-treated MCF-7 cells (cDNA microarray, Northern blot, quantitative RT-PCR); assay type: cell-based, human
Protocol: Immune response activating effects of the DIM analogs are examined with cell-based assays for cytokine and cytokine receptor expression. […] We also used a sensitive sandwich ELISA assay to examine levels of IFNγ in medium from confluent cultures of MCF-7 cells that were treated for up to 3 days. DIM derivatives confirmed to have immune response activating activity in our reporter and ELISA assays are subsequently screened in a whole animal cytokine production and Y. enterocolitica infection studies, as described below in Examples VIII and IX.
An initial cDNA gene expression microarray screen of human breast cancer MCF-7 cells treated with DIM, followed by confirmation of results using Northern blots and quantitative RT-PCR, established the transcriptional activation of IFNγ, IFNγ receptor (IFNGR1), oligoadenylate-synthase (OAS) family member protein 69 (p69-OAS), and interferon-inducible protein 56 (p56), a protein closely related to OAS. […] Maximum induction for IFNγ, IFNGR1, p69-OAS and p56 were 4.6, 3.8, 3.2 and 4.0 fold, respectively.

[1] = test system: IL-6, G-CSF, IL-12, TNF-α and IFNγ; assay: Serum levels of cytokines in mice; assay type: in vivo
MCF-7 cells = assay: Cell proliferation over a 4-day treatment period; assay type: cell-based, human; details: 4-day treatment, heat-treated serum
Protocol: Functional consequences of the synergistic effects of DIM and IFNγ on gene expression were examined at the level of proliferation rates. Cell proliferation was measured over a 4-day treatment period with treatments with DIM, IFNγ, or both substances, and compared to a DMSO control. With heat-treated serum, IFNγ alone reduced cell proliferation by as much as 70% compared to controls. DIM treatments reduced proliferation by as much as 60%. […] These effects were accompanied by morphological changes characteristic of apoptosis.

IL-6 = assay: Serum IL-6 by ELISA in mice after DIM; assay type: in vivo; details: 30 μg/kg DIM orally
Protocol: We firstly investigated the effect of unsubstituted DIM on the production of IL-6, G-CSF, IL-12, TNF-α and IFNγ. A groups of 3 mice was given 30 μg/kg of unsubstituted DIM orally and then sacrificed at 1, 3, 5, 8, and 24 h after drug challenge. Serum was collected, pooled, and assayed for IL-6, G-CSF, IL-12 and TNF-α by ELISA. […] DIM produced an increase in circulating levels of G-CSF and TNF-α with the 3 h time point being maximal. […] DIM also stimulated IL-12 and kinetics were slightly different since the increased levels were sustained for at least 24 h.

[2] = test system: 4GAS-Luc reporter (four repeats of the consensus GAS element); assay: 4GAS-Luc luciferase reporter in transiently transfected MCF-7 cells; assay type: cell-based, human; details: DIM 50 μM, IFNγ concentration dependent, maximum
Protocol: In a further experiment to examine whether the inducing effects of DIM are at the transcriptional level, the effect of DIM on activities of two luciferase reporter constructs, OAS-Luc (12) and 4GAS-Luc (13) was examined. OAS-Luc contains the promoter and 5′-flanking region (−972) of p69-OAS and GAS-Luc contains four repeats of the consensus GAS element. MCF-7 cells transiently transfected with these reporter constructs were treated with IFNγ, DIM, or a combination of both for 24 h. […] IFNγ induced transcriptional activity of this reporter in a concentration dependent manner to a maximum of about 1.8 fold, which is less than the response of the endogenous gene of about 5.0 fold. In marked contrast to the maximum effects of combined treatments of the inducers on endogenous gene expression (nearly 12-fold increase compared to vehicle treated cells), the reporter gene construct responded with less than a 3-fold increase over the controls.
Thus, treatment with DIM (50 μM) by itself again produced a 2 to 3-fold increase in activity of this reporter. IFNγ treatments, however, produced a robust concentration dependent increase in reporter activity to approximately 40-fold induction compared to vehicle treated controls. […]

GAS element = assay: Electrophoretic gel mobility shift assay, STAT1 binding to GAS element; assay type: cell-based, human; details: DIM pretreatment for various times, IFNγ 30 min
Protocol: An electrophoretic gel mobility shift assay was used to verify that the phosphorylated STAT1 was effectively activated to a dimer that could bind to the GAS element. The ^32P-labeled DNA probe containing a GAS sequence was incubated with nuclear extracts from cells pretreated with DIM for various times as indicated, and with IFNγ for 30 min. […] When samples were incubated with an antibody specific to STAT1, the band was super-shifted, confirming the identity of the protein binding to the labeled GAS probe.

[3] = Estimated blood concentration of DIM from dietary broccoli; set-up: species or system human; details: approximately 12 mg DIM from 200 g broccoli daily, maximum absorption assumed
Protocol: We observed the immune response activating activity of DIM at physiologically relevant concentrations. A person of average weight who consumes 200 g of broccoli daily will obtain approximately 12 mg of DIM. With maximum absorption of DIM, the blood concentration of DIM will reach approximately 10 μM. Therefore, in vivo concentrations of DIM from dietary Brassica vegetables represent the effective levels of DIM in vitro.

[4] = test system: Y. enterocolitica WA-314 serotype O:8; assay: Y. enterocolitica infection of BALB/c mice, spleen bacterial numbers; assay type: in vivo
Protocol: Female, 6- to 8-week-old BALB/c mice are purchased from Charles River and kept under specific-pathogen-free conditions (positive-pressure cabinet).
Mice are given 30 μg/kg/day of a DIM or one of 24 substituted DIM compounds (Table 1, supra) orally, starting at 1 day prior to infection.
Freshly thawed, plasmid-harboring Y. enterocolitica WA-314 serotype O:8 organisms suspended in 0.1 ml of sterile phosphate-buffered saline (PBS), pH 7.4, are used for intravenous and oral infection as described previously (Autenrieth, et al. 1994. Infect. Immun. 62:2590-2599). The actual number of bacteria administered is determined by plating serial dilutions of the inoculum on Mueller-Hinton agar and counting CFU after an incubation period of 36 h at 26C. For kinetic studies, five mice per group are killed by carbon dioxide asphyxiation on days 1, 3, and 7 postinfection (p.i.) with 5×10^3 bacteria. Spleens are aseptically removed, and single-cell suspensions prepared by using 5 ml of PBS containing 0.1% bovine serum albumin. Duplicates of 0.1 ml of serial dilutions of these preparations are plated on Mueller-Hinton agar. The limit of detectable CFU is 25 (log1025=1.4).
In single end-point studies, bacterial numbers in spleens of treated BALB/c mice 7 days p.i. with 2×10^3 Y. enterocolitica show significant reductions compared with untreated controls.

With `c1ccc2c(Cc3c[nH]c4ccccc34)c[nH]c2c1` [DIM, 3,3′-Diindolylmethane] the “Maximum induction of IFNγ mRNA” value (IFNγ; MCF-7 cells treated with DIM) was 4.6 fold, the “Treatment time at which IFNγ expression was fully induced” value (IFNγ; MCF-7 cells treated with DIM) was 6 h and the “IFNγ mRNA level following 48 h of DIM treatment” value (IFNγ; MCF-7 cells, 48 h) was “returned to near control levels”. For the same compound, the “Cytokine production, including IFNγ” value ([1]; intravenous administration) was “elevated cytokine production”, the “Serum levels of cytokines” value ([1]; oral, 1-24 h after challenge) was “stimulated a time-dependent increase in serum levels of cytokines” and the “Reduction of cell proliferation compared to controls” value (MCF-7 cells) was at most 60%. The “Time of peak IL-6 induction” value (IL-6) was 5 h, the “Induction of 4GAS-Luc reporter activity compared to vehicle treated controls” value [2] was 2 to 3 fold and the “Band-shift of 32P-labeled GAS probe with nuclear extracts” value (GAS element) was “did not produce a shifted band”. For the same compound, the “Blood concentration of DIM” value [3] was “approximately 10 μM” and the “Severity of yersiniae infection” value [4] was “reduce the severity of yersiniae infection”.
